Laboratory results: patent publication US5773444A, “Quinazolines as inhibitors of endothelin converting enzyme” (Warner-Lambert Company, priority 1997, dated 1998)
Non-standard residues stand in square brackets, D forms with d. Residues, ends and D or L forms follow the SMILES beside them. No end group written: not given here.

Legend:
[1] = system: mouse model of endotoxic shock; settings: cited from earlier work
[2] = system: ET-1-induced bronchoconstriction and tracheal smooth muscle contraction; settings: allergic sheep; cited from earlier work
[3] = system: isolated nonischemic and ischemic rat hearts; settings: cited from earlier work; for preischemic increase in coronary perfusion pressure induced by big ET-1 and its proischemic effect: phosphoramidon 100 μM, BQ-123 0.3 μM; for IC50: isolated rat hearts, read-out: IC50, reduction of coronary flow; for time to contracture in globally ischemic rat hearts: pretreatment / 10 nMol big ET-1
[4] = system: models of acute renal ischemia and subarachnoid hemorrhage in rats; settings: cited from earlier work
[5] = system: hemodynamic actions of big ET-1 in rat brain; settings: cited from earlier work
[6] = system: caliber of the basilar artery and systemic arterial pressure; settings: anesthetized dogs, intracisternal big ET-1; cited from earlier work
[7] = target: T1, endothelin converting enzyme (ECE) (Homo sapiens, UniProt P42892); test: ECE assay (partially purified ECE from EA.hy926, ET-1 production by RIA); format: biochemical; settings: 100 μM thiorphan or 100 nM phosphoramidon
T1 construct: ECE was partially purified from EA.hy926 grown in 150 roller; endogenous in cells; host or cells: EA.hy926 (human umbilical vein endothelial cells fused with A549); detergent-solubilised membranes, RCA-I lectin eluate

[8] = system: rats subjected to coronary occlusion and reperfusion; settings: given IV; cited from earlier work
[9] = system: vasoconstrictor effects evoked by intravenous injections of big ET-1; settings: anaesthetized pigs; cited from earlier work
[10] = system: pressor response of big ET; settings: micromolar concentrations, in vitro and in vivo; cited from earlier work
[11] = system: lethality induced by the intravenous infusion of big ET-1; settings: in vivo; cited from earlier work
[12] = system: neutral endopeptidase 24.11 (NEP 24.11); test: NEP 24.11 inhibition under ECE assay conditions; format: biochemical, human; settings: 100 μM thiorphan or 100 nM phosphoramidon
Excerpt: The cell line, EA.hy926, contains neutral endopeptidase 24.11 (NEP 24.11) which also cleaves big ET-1 to ET-1 and c-terminal fragment (manuscript submitted). […] All the data were obtained in the linear range of time-course curves.

[13] = system: effects of big ET-1 in the microvasculature; settings: anesthetized hamsters; cited from earlier work
[14] = system: pressor response of big ET-1; settings: ganglion-blocked anesthetized rats; cited from earlier work
[15] = system: intracellular conversion of big ET-1 to ET-1; settings: cultured vascular endothelial cells and smooth muscle cells; cited from earlier work
behavioral effects = settings: intracerebroventricular, rats; cited from earlier work
[16] = system: gastric mucosal hemorrhagic change; settings: 50-500 pmol/kg into the left gastric artery; cited from earlier work
blood pressure = settings: in vivo; cited from earlier work

T1 sequence (P42892 whole entry, the tested form may be a part): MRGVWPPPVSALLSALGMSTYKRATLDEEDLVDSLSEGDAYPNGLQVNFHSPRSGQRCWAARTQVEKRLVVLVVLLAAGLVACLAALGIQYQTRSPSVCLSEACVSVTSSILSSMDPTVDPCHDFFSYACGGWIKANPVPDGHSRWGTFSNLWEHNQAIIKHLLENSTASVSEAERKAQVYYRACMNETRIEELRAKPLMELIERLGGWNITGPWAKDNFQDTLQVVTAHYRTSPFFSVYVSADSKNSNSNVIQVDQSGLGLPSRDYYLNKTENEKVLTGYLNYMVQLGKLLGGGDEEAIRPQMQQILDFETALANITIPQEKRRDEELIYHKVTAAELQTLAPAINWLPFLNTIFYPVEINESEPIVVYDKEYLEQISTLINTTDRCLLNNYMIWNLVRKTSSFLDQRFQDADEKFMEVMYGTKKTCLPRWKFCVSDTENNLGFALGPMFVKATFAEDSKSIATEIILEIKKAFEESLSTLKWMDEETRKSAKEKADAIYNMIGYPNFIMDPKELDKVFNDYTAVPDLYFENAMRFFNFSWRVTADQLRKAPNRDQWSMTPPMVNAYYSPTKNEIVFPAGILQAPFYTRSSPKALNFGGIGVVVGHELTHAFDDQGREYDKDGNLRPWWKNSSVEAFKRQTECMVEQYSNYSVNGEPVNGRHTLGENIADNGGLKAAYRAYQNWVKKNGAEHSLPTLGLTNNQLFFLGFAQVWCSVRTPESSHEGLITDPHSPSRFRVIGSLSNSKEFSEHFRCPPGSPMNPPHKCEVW

For `CC(C)C[C@@H]1NC(=O)[C@@H](C(C)C)NC(=O)[C@@H]2CCCN2C(=O)[C@@H](CC(=O)O)NC(=O)[C@@H](Cc2c[nH]c3ccccc23)NC1=O` [BQ-123] (cyclo(L[dW][dD]P[dV])), the survival rate [1] is listed as “significantly increased the survival rate”, the “ET-1-induced bronchoconstriction and tracheal smooth muscle contraction” value [2] is listed as “block ET-1-induced bronchoconstriction and tracheal smooth muscle contraction” and the “preischemic increase in coronary perfusion pressure induced by big ET-1 and its proischemic effect” value [3] is listed as “abolished”.
For `COc1cccc(Oc2c(NS(=O)(=O)c3ccc(C(C)(C)C)cc3)ncnc2OCCO)c1` [RO 46-2005], the “efficacy in models of acute renal ischemia and subarachnoid hemorrhage” value [4] is given as “effective”.
For `CC(C)C[C@H](NP(=O)(O)O[C@@H]1O[C@@H](C)[C@H](O)[C@@H](O)[C@H]1O)C(=O)N[C@@H](Cc1c[nH]c2ccccc12)C(=O)O` [phosphoramidon], the “inhibition of hemodynamic actions of big ET-1” value [5] is given as “phosphoramidon sensitive inhibition of hemodynamic actions of big ET-1”, the “block of big ET-1 effects on basilar artery caliber and systemic arterial pressure” value [6] is given as “These effects were blocked by phosphoramidon” and the “effect on ECE activity at NEP-blocking concentration” value [7] is given as “without affecting the ECE activity”. The “infarct size 24 hour postischemia” value [8] was “significantly reduce infarct size”, the “effect on plasma ET-1 level” value [9] was “did not have any effect on the plasma ET-1 level” and the “vasoconstrictor effects evoked by i.v. big ET-1” value [9] was “inhibit vasoconstrictor effects”. For the same compound, the “block of pressor response of big ET” value [10] was “block the pressor response of big ET”, the “lethality induced by the intravenous infusion of big ET-1” value [11] was “suppress the lethality” and the “NEP 24.11 inhibition” value [12] was “completely inhibited”. The “effects of big ET-1 in the microvasculature” value [13] was “inhibit the effects of big ET-1”, the “block of pressor response of big ET-1” value [14] was “blocked by phosphoramidon in a dose-dependent manner” and the “inhibition of intracellular conversion of big ET-1 to ET-1” value [15] was “inhibit the intracellular conversion of big ET-1 to ET-1”. The “preischemic increase in coronary perfusion pressure induced by big ET-1 and its proischemic effect” value [3] was “abolished”.
For “ET-1: potent vasoconstrictor, is a 21 amino acid bicyclic peptide”, the behavioral effects (behavioral effects) is given as “evoke behavioral effects”, the “tissue type plasminogen activator release, platelet activating formation and gastric mucosal hemorrhagic change” value [16] is given as “increased the tissue type plasminogen activator release and platelet activating formation and induced gastric mucosal hemorrhagic change in a dose-dependent manner” and the IC50 [3] is given as 12 µM. For the same compound, the “time to contracture in globally ischemic rat hearts” value [3] was “significantly reduced the time to contracture”.
For “big ET-1: 38 (human) or 39 (porcine) amino acid peptide known as big endothelin or proendothelin (CSCSSLMDKECVYFCHLDIIWVNTPEHVVPYGLGSPRS; ends and bridges not checked; cysteine pairing not given here; UniProt P05305 53-90, looked up)”, the “potency at raising blood pressure relative to ET-1” value (blood pressure) is listed as “equally potent in vivo”, the IC50 [3] is listed as 0.002 µM and the “time to contracture in globally ischemic rat hearts” value [3] is listed as “significantly reduced the time to contracture”.
